This is an account of results in ChEMBL document CHEMBL1128368, “Synthesis and serotonergic activity of N,N-dimethyl-2-[5-(1,2,4-triazol-1-ylmethyl)-1H-indol-3-yl]ethylamine and analogues: potent agonists for 5-HT1D receptors” (J Med Chem, 1995).

The term IC50 denotes the concentration at which inhibition is half-maximal. By EC50 is commonly meant the concentration giving half of the maximal effect. As usually defined, the logD is the decadic logarithm of the distribution of all forms, ionised or not, between an organic phase and buffer at a given pH. High values mean higher lipophilicity, low ones lower lipophilicity. By pIC50 is commonly meant the negative decadic logarithm of the IC50, by convention in mol/L.

Data set [1] deals with T1, 5-HT2C receptors (Sus scrofa, UniProt K7GSR7). Put plainly: Binding activity against 5-hydroxytryptamine 2C receptor from pig cortex membrane using [3H]mesulergine as radioligand.
The target of data set [2] is T2, Serotonin 3 (5-HT3) receptor (Rattus norvegicus, UniProt P35563+Q9JJ16).
T2 sequence (P35563 whole entry): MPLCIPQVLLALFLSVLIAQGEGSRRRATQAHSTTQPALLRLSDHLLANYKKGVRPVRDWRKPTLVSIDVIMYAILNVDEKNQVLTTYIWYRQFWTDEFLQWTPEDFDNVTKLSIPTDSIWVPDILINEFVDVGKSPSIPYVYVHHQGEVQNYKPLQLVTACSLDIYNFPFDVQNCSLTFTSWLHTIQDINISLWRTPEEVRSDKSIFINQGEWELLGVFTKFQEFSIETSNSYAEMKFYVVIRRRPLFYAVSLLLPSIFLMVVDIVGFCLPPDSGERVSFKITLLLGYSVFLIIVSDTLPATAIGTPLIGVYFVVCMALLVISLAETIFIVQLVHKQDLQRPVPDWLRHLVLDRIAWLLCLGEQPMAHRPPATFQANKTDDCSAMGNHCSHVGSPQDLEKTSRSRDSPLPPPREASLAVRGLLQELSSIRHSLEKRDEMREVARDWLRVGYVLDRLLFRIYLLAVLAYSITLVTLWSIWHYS
T2 sequence (Q9JJ16 whole entry): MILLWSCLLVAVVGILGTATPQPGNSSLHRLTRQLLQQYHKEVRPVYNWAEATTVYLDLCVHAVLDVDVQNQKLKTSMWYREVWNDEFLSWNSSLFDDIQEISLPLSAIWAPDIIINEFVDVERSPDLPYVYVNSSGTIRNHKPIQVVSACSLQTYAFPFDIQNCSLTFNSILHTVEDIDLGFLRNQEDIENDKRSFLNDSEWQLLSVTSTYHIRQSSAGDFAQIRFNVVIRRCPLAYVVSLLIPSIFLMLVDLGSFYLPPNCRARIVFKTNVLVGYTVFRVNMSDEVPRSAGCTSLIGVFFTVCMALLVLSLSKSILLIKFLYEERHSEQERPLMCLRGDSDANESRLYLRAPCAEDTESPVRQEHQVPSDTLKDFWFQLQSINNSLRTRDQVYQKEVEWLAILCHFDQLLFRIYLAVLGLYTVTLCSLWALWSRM
The data set can be described thus: Inhibition of [3H]-Q-ICS 205-930 binding to rat cortex homogenate 5-hydroxytryptamine 3 receptor.

The species named for another data set is Oryctolagus cuniculus. The data set can be described thus: Functional activity was determined by the contraction of New Zealand white rabbit saphenous vein.
The target of data set [3] is 5-hydroxytryptamine receptor 1D (Sus scrofa, UniProt P79400). The data set can be described thus: Binding activity against 5-hydroxytryptamine 1D receptor from pig caudate membrane using [3H]5-HT as radioligand.
Chain of 5-hydroxytryptamine receptor 1D (P79400 whole entry): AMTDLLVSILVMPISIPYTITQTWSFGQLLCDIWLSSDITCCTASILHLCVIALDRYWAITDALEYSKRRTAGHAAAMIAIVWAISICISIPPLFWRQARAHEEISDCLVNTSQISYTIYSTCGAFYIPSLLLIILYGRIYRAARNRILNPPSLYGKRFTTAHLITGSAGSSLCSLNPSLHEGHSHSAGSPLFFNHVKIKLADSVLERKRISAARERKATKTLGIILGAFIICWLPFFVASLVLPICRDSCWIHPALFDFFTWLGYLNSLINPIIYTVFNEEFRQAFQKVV
Data set [4] in a line: Partition coefficient (logD7.4). The following applies: octanol/water, pH 7.4.
Data set [5] is described as follows: Binding activity against 5-hydroxytryptamine 2C receptor from pig cortex membrane using [3H]mesulergine as radioligand.
Data set [6] has as its target T1, 5-HT2C receptors. The data set can be described thus: Binding activity against 5-hydroxytryptamine 2C receptor from pig cortex membrane using [3H]mesulergine as radioligand; NA Not Available.
For data set [7], the target named is Serotonin 3 (5-HT3) receptor. The data set can be described thus: Binding activity against 5-hydroxytryptamine 1A receptor from human brain cortex using [3H]8-OH-DPAT[…] radioligand.
For data set [8], the target named is T2, Serotonin 3 (5-HT3) receptor. The data set can be described thus: Binding activity radioligand. It is filed as protein-complex assay.

With `CN(C)CCc1c[nH]c2ccc(Cc3nnn(C)n3)cc12`, the IC50 (at 5-HT2C receptors [1]; in [2]) was 2510 nM in each case. For the same compound, in the data set listed under Oryctolagus cuniculus, it took 1000 nM to reach a half-maximal effect (EC50).
In turn, `CN(C)CCc1c[nH]c2ccc(Cn3nccn3)cc12` had an IC50 in data set [3] of 251 nM. For the same compound, in data set [4], the logD was -0.2.
Take `CCn1nnc(Cc2ccc3[nH]cc(CCN(C)C)c3c2)n1`: the IC50 at 5-HT2C receptors [1] is 1580 nM; in data set [2], 2510 nM. Further, the EC50 in the data set listed under Oryctolagus cuniculus is 631 nM.
For `CN(C)CCc1c[nH]c2ccc(Cc3nnn[nH]3)cc12`, at 5-HT2C receptors [1], the IC50 was above 10000 nM.
For the compound `CN(C)CCc1c[nH]c2ccc(Cc3nc(N)no3)cc12`, the IC50 on 5-HT2C receptors [1] is 398 nM. This compound registered a pIC50 in [5] of 5.9.
Regarding `CCn1nnnc1Cc1ccc2[nH]cc(CCN(C)C)c2c1`, the IC50 (on 5-HT2C receptors [1]; in data set [2]) was above 10000 nM each time. In the data set listed under Oryctolagus cuniculus, this compound gave an EC50 of 398 nM.
In the data set filed under Oryctolagus cuniculus, `CN(C)CCc1c[nH]c2ccc(Cn3ccnn3)cc12` showed a half-maximal effective concentration (EC50) of 1000 nM. Also, the IC50 at 5-HT2C receptors [6] is 6310 nM.
As for `CN(C)CCc1c[nH]c2ccc(Cc3ncn(C)n3)cc12`, the IC50 in [3] was 200 nM. In [4], this compound came in with a logD of -1.01.
As to `CN(C)CCc1c[nH]c2ccc(Cc3ncnn3C)cc12`, the half-maximal inhibitory concentration (IC50) was 3980 nM on 5-HT2C receptors [1] and 10000 nM in [2]. Besides, the logD in [4] was -0.75. The compound also showed an EC50 in the data set filed under Oryctolagus cuniculus of 631 nM.
Regarding `CN(C)CCc1c[nH]c2ccc(Cn3ccnc3)cc12`, the figures for the IC50 (at 5-HT2C receptors [1]; in data set [2]) were 3160 nM and 1260 nM, respectively. In data set [4], this compound gave a logD of -0.53. The compound also gave an EC50 in the data set listed under Oryctolagus cuniculus of 501 nM.
For `CN(C)CCc1c[nH]c2ccc(Cc3nnnn3C)cc12`, the IC50 on 5-HT2C receptors [1] was above 10000 nM; in [2], 5010 nM. In the data set listed under Oryctolagus cuniculus, this compound had an EC50 of 251 nM.
The corresponding values for `Cc1nccn1Cc1ccc2[nH]cc(CCN(C)C)c2c1` are 7940 nM, 1580 nM and 631 nM.
For the compound `CN(C)CCc1c[nH]c2ccc(Cn3ncnn3)cc12`, the IC50 at 5-HT2C receptors [1] was 2000 nM; in [2] it was 3160 nM. The logD in data set [4] was -0.34. The same compound showed a concentration giving a half-maximal response (EC50) in the data set listed under Oryctolagus cuniculus of 200 nM.
Turning to `CN(C)CCc1c[nH]c2ccc(Cn3cnnn3)cc12`, the IC50 at 5-HT2C receptors [1] was 5010 nM; in data set [2], 1260 nM. This compound showed an EC50 in the data set listed under Oryctolagus cuniculus of 200 nM.
Turning to `Cc1nccn1-c1ccc2[nH]cc(CCN(C)C)c2c1`, the IC50 is above 10000 nM at 5-HT2C receptors [1] and 3160 nM in data set [2]. In data set [4], this compound showed a logD of -0.13. This compound also showed an EC50 in the data set listed under Oryctolagus cuniculus of 158 nM.
For the compound `CN(C)CCc1c[nH]c2ccc(Cc3nncn3C)cc12`, on 5-HT2C receptors [1], the concentration for half-maximal inhibition (IC50) is above 10000 nM.
For the compound `CN(C)CCc1c[nH]c2ccc(-n3cncn3)cc12`, the IC50 (on 5-HT2C receptors [1]; in data set [2]) was 10000 nM throughout. In the data set listed under Oryctolagus cuniculus, this compound had an EC50 of 63.1 nM.
As for `CN(C)CCc1c[nH]c2ccc(Cn3cncn3)cc12` [RIZATRIPTAN], the values for the IC50 (on 5-HT2C receptors [1]; in data set [8]) were 6310 nM and 3980 nM, respectively. Besides, in data set [7], the pIC50 was below 5. Also, in data set [4], the logD is -0.74. Further, it took 251 nM to reach a half-maximal effect in the data set listed under Oryctolagus cuniculus (EC50).
